Earlier results as cited in article PMC10976394 (ACS Omega, 2024).

Conditions: human; cited from earlier work

CC[C@@H]1CN(C(=O)NCC(F)(F)F)C[C@@H]1c1cnc2cnc3[nH]ccc3n12 [upadacitinib]
clearance behavior under the arthritic condition: reduced the clearance behavior
